Target: T1, APOL1 G1 Protein (Homo sapiens, UniProt O14791, I384M/S342G)
T1 sequence (O14791 28-398 S342G/I384M): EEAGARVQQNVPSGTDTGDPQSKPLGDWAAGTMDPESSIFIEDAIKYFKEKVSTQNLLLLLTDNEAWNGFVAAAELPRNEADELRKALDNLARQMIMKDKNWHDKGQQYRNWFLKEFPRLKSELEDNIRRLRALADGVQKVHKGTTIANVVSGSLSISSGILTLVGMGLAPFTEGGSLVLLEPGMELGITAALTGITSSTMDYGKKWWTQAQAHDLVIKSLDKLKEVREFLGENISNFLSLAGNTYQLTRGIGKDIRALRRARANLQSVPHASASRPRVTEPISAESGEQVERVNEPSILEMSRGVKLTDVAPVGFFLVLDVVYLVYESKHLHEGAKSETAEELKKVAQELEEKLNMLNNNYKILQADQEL
Experiment: Trypanosoma brucei brucei lysis assay using APOL1 recombinant protein (AlamarBlue viability)
Type: cell-based
Settings: Trypanosoma brucei brucei lysis, recombinant APOL1, AlamarBlue; read-out: Trypanosoma Assay (IC50)
Description: Trypanosoma brucei brucei is a blood stream parasite to which human, gorillas and baboon are immune due to the presence of the APOL1 protein in their HDL particles. The protein is uptaken by the parasite via the TbHpHb receptor located in its flagellar pocket and is bonded by the Hpr protein contained in the HDL particles which triggers the receptor endocytosis by the parasite.
Following endocytosis, the formed vesicle containing the HDL particle matures from early to late endosome, and subsequently to lysosome. The concomitant pH change in the lumen of the vesicle triggers the insertion of the APOL1 protein into the membrane of the late endosome/lysosome and hereby triggers lysosomal membrane premeabilisation and as a further downstream event, trypanosome lysis. Trypanosoma brucei brucei is sensitive to lysis by all three APOL1 variants (G0, G1, and G2).
The Trypanosoma brucei brucei lysis assay is a lysis assay of the parasite using recombinant APOL1 protein variant followed by a fluorescent detection method of viability by the addition of AlamarBlue reagent to the assay well, a general metabolic redox indicator (AlamarBlue assay).
Briefly, the AlamarBlue active compound, the resazurin, a blue, water soluble, non-toxic and cell permeable molecule, which can be followed by absorbance, is reduced by various metabolic pathways into resorufin, a red compound which can be followed by either absorbance or fluorescence. The assay allows the calculation of the percent viability (percent of living Trypanosomes remaining in each well) at the end of a lysis relative to the untreated condition by interpolation of fluorescent values (FLU) on a standard curve with a known amount of seeded trypanosome/well.
Trypanosoma brucei brucei (ATCC, Cat. No. PRA-382) • Lister 427 VSG 221 bloodstream form.
Thaw/Expansion Media (ATCC Medium 2834 Modified HMI-9 Medium)
Assay Media (No Phenol Red/No FBS): Make on Day of Use
Hypoxanthine Stock (100×)-9 (10×)
Equipment • El-Clip Tip pipette 12 channel adjustable 2-125 μL, Cat. No. 4672070BT • ThermoFisher MultiDrop 384, Cat. No. 5840300 • Multidrop • Agilent Bravo, Cat. No. G5409A • Bravo • SpectraMax M5
Assay Ready Plates (ARPs) • ARPs comes in two formats: • […] final top concentration with a 2.5 fold dilution down. • […] final top concentration with a 3 fold dilution down. • Both have a 10 point Dose response. • 0.1% DMSO final in the Black Assay Plate. • Compounds are diluted 1000 fold in the Black Assay Plate. • Each plate is designed for 14 compounds in duplicate. • In the final Black Assay Plate:
Trypanosoma brucei brucei Culture
Step 2, Day 4 • Centrifuge at 800×g for 5 minutes at room temperature. • Resuspend in 1 mL media. • Make a 1:25 fold dilution (10 μL/240 μL media). • Count on a hemocytometer (after adding parasites). • Let sit for 1-2 minutes for the parasites to settle. • Count should be approximately 100 viable motile parasites/16 grid or approximately 25×10^6 parasites/flask. • Passage the parasites by adding 1×10^6 parasites/T75 flask in 20 mL media. • Passage the parasites by adding 2.33×10^6 parasites/T175 flask in 46.6 mL media. • For every T75 flask should make enough for approximately 1.5×384 well assay plates. • For every T175 flask should make enough for approximately 3.8×384 well assay plates.
Step 3, Day 6 • Centrifuge at 800×g for 5 minutes. • Resuspend in 3 mL assay media (No phenol red, no FBS) per 75 starting flask. • Resuspend in 7 mL assay media (No phenol red, no FBS) per 175 flask • Make a 1:25 fold dilution. • Count by hemocytometer. • Every T75 flask set up should have approximately 75×10^6 parasites/flask (verify doubling time=8.7 hrs±1 hr). • Every T175 flask set up should have approximately 175×10^6 parasites/flask (verify doubling time=8.7 hrs±1 hr). • Require 46×10^6 parasites per 384 well plate (at 120,000 parasites per well). Protocol B […]

First: CC(O)(CO)CNC(=O)[C@H]1C[C@H](c2c(-c3ccc(F)cc3)[nH]c3c(F)cc(F)cc32)C1 (mixture of isomers) [Compound 216]
Second: CC(CO)(CO)NC(=O)[C@H]1C[C@H](c2c(-c3ccc(F)cc3)[nH]c3c(F)cc(F)cc32)C1 [Compound 186]
The IC50 of the first is higher: greater than 1000 nM for the first, less than 250 nM for the second. The second is the more potent here.

Compared with `CC(C)C(CO)NC(=O)[C@H]1C[C@H](c2c(-c3ccc(F)cc3)[nH]c3c(F)cc(F)cc32)C1` (some centres unmarked) [Compound 29], `C[C@H](O)[C@@H](CO)NC(=O)[C@H]1C[C@H](c2c(-c3ccc(F)cc3)[nH]c3c(F)cc(F)cc32)C1` [Compound 16] is lower in IC50: 250 to 1000 nM for the first, less than 250 nM for the second. The second is the more potent here.

First: O=C(N[C@@H]1CCC[C@@H]1O)[C@H]1C[C@H](c2c(-c3ccc(F)cc3)[nH]c3c(F)cc(F)cc32)C1 [Compound 179]
Second: O=C(N[C@@H]1CCC[C@H]1O)[C@H]1C[C@H](c2c(-c3ccc(F)cc3)[nH]c3c(F)cc(F)cc32)C1 [Compound 182]
The IC50 of the first is lower: 250 to 1000 nM for the first, greater than 1000 nM for the second. The first is the more potent here.

`NC(=O)C(CO)NC(=O)[C@H]1C[C@H](c2c(-c3ccc(F)cc3)[nH]c3c(F)cc(F)cc32)C1` (some centres unmarked) [Compound 32] and `NC(=O)[C@@H](CO)NC(=O)[C@H]1C[C@H](c2c(-c3ccc(F)cc3)[nH]c3c(F)cc(F)cc32)C1` [Compound 221] cannot be ordered by IC50: less than 250 nM for the first, less than 250 nM for the second.

First: CS(=O)(=O)NC(=O)[C@H]1C[C@H](c2c(-c3ccc(F)cc3)[nH]c3c(F)cc(F)cc32)C1 [Compound 213]
Second: NC(=O)C1CC(c2c(-c3ccc(F)cc3)[nH]c3c(F)cc(F)cc23)C1 (centres unmarked) [Compound 278, 3-[5,7-difluoro-2-(4-fluorophenyl)-1H-indol-3-yl]cyclobutanecarboxamide]
The IC50 of the first is higher: greater than 1000 nM for the first, 250 to 1000 nM for the second.

`COC[C@@H]1CCN1C(=O)[C@H]1C[C@H](c2c(-c3ccc(F)cc3)[nH]c3c(F)cc(F)cc32)C1` [Compound 222] and `O=C([C@H]1C[C@H](c2c(-c3ccc(F)cc3)[nH]c3c(F)cc(F)cc32)C1)N1CC[C@H]1CO` [Compound 206] cannot be ordered by IC50: less than 250 nM for the first, less than 250 nM for the second.

Compared with `O=C1CN(C(=O)[C@H]2C[C@H](c3c(-c4ccc(F)cc4)[nH]c4c(F)cc(F)cc43)C2)CCN1` [Compound 228], `O=C([C@H]1C[C@H](c2c(-c3ccc(F)cc3)[nH]c3c(F)cc(F)cc32)C1)N1C[C@@H](O)[C@H](O)C1` [Compound 227] is lower in IC50: greater than 1000 nM for the first, 250 to 1000 nM for the second.

First: Cn1ncc(CNC(=O)[C@H]2C[C@H](c3c(-c4ccc(F)cc4)[nH]c4c(F)cc(F)cc43)C2)n1 [Compound 198]
Second: Cn1cc(CNC(=O)[C@H]2C[C@H](c3c(-c4ccc(F)cc4)[nH]c4c(F)cc(F)cc43)C2)cn1 [Compound 38]
The IC50 of the first is lower: less than 250 nM for the first, 250 to 1000 nM for the second. The first is the more potent here.

First: O=C1OCC[C@@H]1NC(=O)[C@H]1C[C@H](c2c(-c3ccc(F)cc3)[nH]c3c(F)cc(F)cc32)C1 [Compound 188]
Second: CC1CC(NC(=O)[C@H]2C[C@H](c3c(-c4ccc(F)cc4)[nH]c4c(F)cc(F)cc43)C2)C(=O)O1 (some centres unmarked) [Compound 207]
The IC50 of the first is lower: 250 to 1000 nM for the first, greater than 1000 nM for the second.

First: O=C1N[C@H](CO)C[C@@H]1NC(=O)[C@H]1C[C@H](c2c(-c3ccc(F)cc3)[nH]c3c(F)cc(F)cc32)C1 [Compound 209]
Second: O=C1CCC(NC(=O)[C@H]2C[C@H](c3c(-c4ccc(F)cc4)[nH]c4c(F)cc(F)cc43)C2)C(=O)N1 (some centres unmarked) [Compound 26]
The IC50 of the first is higher: greater than 1000 nM for the first, 250 to 1000 nM for the second.

`C[C@@H](CO)NC(=O)[C@H]1C[C@H](c2c(-c3ccc(F)cc3)[nH]c3c(F)cc(F)cc32)C1` [Compound 200] and `CC(CO)NC(=O)[C@H]1C[C@H](c2c(-c3ccc(F)cc3)[nH]c3c(F)cc(F)cc32)C1` (mixture of isomers) [Compound 13] cannot be ordered by IC50: less than 250 nM for the first, less than 250 nM for the second.

`CC(CO)N(C)C(=O)[C@H]1C[C@H](c2c(-c3ccc(F)cc3)[nH]c3c(F)cc(F)cc32)C1` (mixture of isomers) [Compound 193] and `O=C(NC[C@H](O)CO)[C@H]1C[C@H](c2c(-c3ccc(F)cc3)[nH]c3c(F)cc(F)cc32)C1` [Compound 225] fall in the same range of IC50: 250 to 1000 nM for the first, 250 to 1000 nM for the second.

First: O=C(NC[C@@H](O)C(F)(F)F)[C@H]1C[C@H](c2c(-c3ccc(F)cc3)[nH]c3c(F)cc(F)cc32)C1 [Compound 177]
Second: CC(C)(O)C(O)CNC(=O)[C@H]1C[C@H](c2c(-c3ccc(F)cc3)[nH]c3c(F)cc(F)cc32)C1 (some centres unmarked) [Compound 215]
The IC50 of the first is lower: 250 to 1000 nM for the first, greater than 1000 nM for the second. The first is the more potent here.

`C[C@]1(NC(=O)[C@H]2C[C@H](c3c(-c4ccc(F)cc4)[nH]c4c(F)cc(F)cc43)C2)C[C@@H](O)C1` [Compound 211] and `O=C(N[C@H]1C[C@H](O)C1)[C@H]1C[C@H](c2c(-c3ccc(F)cc3)[nH]c3c(F)cc(F)cc32)C1` [Compound 20] fall in the same range of IC50: 250 to 1000 nM for the first, 250 to 1000 nM for the second.

`Cc1cc(NC(=O)[C@H]2C[C@H](c3c(-c4ccc(F)cc4)[nH]c4c(F)cc(F)cc43)C2)no1` [Compound 17] and `Cc1cc(CNC(=O)[C@H]2C[C@H](c3c(-c4ccc(F)cc4)[nH]c4c(F)cc(F)cc43)C2)on1` [Compound 37] fall in the same range of IC50: 250 to 1000 nM for the first, 250 to 1000 nM for the second.

First: O=C(NC(CO)C1CC1)[C@H]1C[C@H](c2c(-c3ccc(F)cc3)[nH]c3c(F)cc(F)cc32)C1 (some centres unmarked) [Compound 199]
Second: N#CC(CO)NC(=O)[C@H]1C[C@H](c2c(-c3ccc(F)cc3)[nH]c3c(F)cc(F)cc32)C1 (some centres unmarked) [Compound 201]
The IC50 of the first is higher: 250 to 1000 nM for the first, less than 250 nM for the second. The second is the more potent here.

`CC1(CO)CCN1C(=O)[C@H]1C[C@H](c2c(-c3ccc(F)cc3)[nH]c3c(F)cc(F)cc32)C1` (mixture of isomers) [Compound 218] and `O=C([C@H]1C[C@H](c2c(-c3ccc(F)cc3)[nH]c3c(F)cc(F)cc32)C1)N1CCC[C@@H]1CO` [Compound 192] cannot be ordered by IC50: less than 250 nM for the first, less than 250 nM for the second.

First: O=C1NCCC1CNC(=O)[C@H]1C[C@H](c2c(-c3ccc(F)cc3)[nH]c3c(F)cc(F)cc32)C1 (some centres unmarked) [Compound 208]
Second: O=C(NCC1(O)CC1)[C@H]1C[C@H](c2c(-c3ccc(F)cc3)[nH]c3c(F)cc(F)cc32)C1 [Compound 183]
The IC50 of the first is higher: greater than 1000 nM for the first, 250 to 1000 nM for the second.

`O=C(NC1CCOC1)[C@H]1C[C@H](c2c(-c3ccc(F)cc3)[nH]c3c(F)cc(F)cc32)C1` (some centres unmarked) [Compound 15] and `O=C(N[C@H]1COC[C@@H]1O)[C@H]1C[C@H](c2c(-c3ccc(F)cc3)[nH]c3c(F)cc(F)cc32)C1` [Compound 184] fall in the same range of IC50: 250 to 1000 nM for the first, 250 to 1000 nM for the second.

`CC1(NC(=O)[C@H]2C[C@H](c3c(-c4ccc(F)cc4)[nH]c4c(F)cc(F)cc43)C2)CCNC1=O` (mixture of isomers) [Compound 197] and `O=C(NC1(CO)CC(F)(F)C1)[C@H]1C[C@H](c2c(-c3ccc(F)cc3)[nH]c3c(F)cc(F)cc32)C1` [Compound 202] cannot be ordered by IC50: less than 250 nM for the first, less than 250 nM for the second.

First: O=C(NCc1nnco1)[C@H]1C[C@H](c2c(-c3ccc(F)cc3)[nH]c3c(F)cc(F)cc32)C1 [Compound 171]
Second: O=C(NC[C@@H](O)CO)[C@H]1C[C@H](c2c(-c3ccc(F)cc3)[nH]c3c(F)cc(F)cc32)C1 [Compound 224]
The IC50 of the first is lower: less than 250 nM for the first, greater than 1000 nM for the second.

First: COC1CC1NC(=O)[C@H]1C[C@H](c2c(-c3ccc(F)cc3)[nH]c3c(F)cc(F)cc32)C1 (some centres unmarked) [Compound 18]
Second: O=C(NCC(O)CO)[C@H]1C[C@H](c2c(-c3ccc(F)cc3)[nH]c3c(F)cc(F)cc32)C1 (some centres unmarked) [Compound 14]
The IC50 of the first is higher: greater than 1000 nM for the first, 250 to 1000 nM for the second. The second is the more potent here.
